# Source: patent US20260217701A1, “SELECTIVE BET INHIBITORS AND USES THEREOF” (Tay Therapeutics Limited, priority 2022, published 2026)
# Several values for one entry are separate records, joined by “and”; a condition that tells them apart may be missing. Equal entries are not always repeated.
# Assay: Dog PK study #3 (Compound A PO once daily 5 days, 5/10/20 mg/kg; PK, body weight, hematology)
# Format: in vivo, beagle dogs
# Parameters: Plasma Concentration: unit not given here
# Method: For the third dog pharmacokinetic study, three solutions of different concentrations of Compound A were prepared in 5% DMSO/15% PEG-400/80% (10% VE-TPGS) as outlined in Table 2E. The Compound A solutions were administered to animals orally (PO) once daily over a five-day period. Body weight was recorded prior to dosing, and detailed clinical observations were made prior to dosing and throughout the study, as needed.
# Animals were divided into Day 1 and Day 5 sample collection groups, with animals in the Day 1 collection group having blood samples taken prior to dosing and at 0.25, 0.5, 1, 2, 4, 8, and 24 hours after dosing on day 1. Animals in the Day 5 collection group having blood samples taken prior to dosing and at 0.25, 0.5, 1, 2, 4, 8, and 24 hours after dosing on day 5. Study groups are outlined in Table 3D.
# Blood samples (~0.3 mL) were collected on day according to the following schedule (0.25, 0.5, 1, 2, 4, 8, and 24 h) after day 5 administration of Compound A by venipuncture of peripheral veins except for the dosing vein, and EDTA-K2 was used as anticoagulant. Within 30 minutes of collection, the samples were centrifuged at approximately 2000 times g-force for 10 minutes at 4° C. to obtain blood plasma. The plasma samples were immediately divided into two aliquots (~75 μL each), transferred to a cryogenic vial, and stored in a freezer at −75±15° C. prior to analysis.
# The concentration of Compound A in the blood plasma was determined through LC-MS as previously described. Briefly, the experiments were conducted on a DMPK-LCMS-14-SMBA Triple Quad 6500 Plus instrument with an ACQUITY UPLC BEH C18 1.7 μm (50×2.1 mm) column. The matrix was male beagle dog plasma potassium (K2) EDTA A gradient of 95% water (0.1% formic acid and 2 mM HCOONH4)/95% acetonitrile (0.1% formic acid and 2 mM HCOONH4) was used as the mobile phase. The sample flow rate was 0.6 mL/min.
# The samples were then vortex-mixed for 10 minutes at 800 rpm and centrifuged for 15 minutes at 3220×g at 4° C. 50 μL aliquots of supernatant were transferred to a clean 96-well plate and centrifuged for 5 minutes at 3220×g at 4° C. Samples were then injected into the LC/MS/MS system for quantitative analysis.
# The gathered data were used for pharmacokinetic calculations using T1/2, CO, AUClast, AUCinf, MRTinf, Cl, Vss, and Number of Points for Regression as parameters.
# The cell composition (hematology) of blood samples was analyzed at day 5. Analyses identified the total number of white blood cells, neutrophils, lymphocytes, monocytes, eosinophils, basophils, and platelets in collected samples.
# [1] = Day 1, 5 mg/kg dose PO, individual animals
# [2] = Day 1, 10 mg/kg dose PO, individual animals
# [3] = Day 1, 20 mg/kg dose PO, individual animals
structure (smiles),measurement,setting,value
"Cn1cc(-c2ccccc2)c(-c2cn(C)c(=O)c3[nH]c(-c4cnn(C(F)(F)F)c4)cc23)cc1=O [Compound A, 6-methyl-4-(1-methyl-2-oxo-5-phenyl-1,2-dihydropyridin-4-yl)-2-(1-(trifluoromethyl)-1H-pyrazol-4-yl)-1,6-dihydro-7H-pyrrolo[2,3-c]pyridin-7-one]",Plasma Concentration,"Day 1, 5 mg/kg dose PO, time 0, individual animals",BQL
same,Plasma Concentration,"Day 1, 5 mg/kg dose PO, time 0.25, individual animals",9.79 and 28.1
same,Plasma Concentration,"Day 1, 5 mg/kg dose PO, time 0.25, mean",18.9
same,Plasma Concentration,"Day 1, 5 mg/kg dose PO, time 0.5, individual animals",206 and 326
same,Plasma Concentration,"Day 1, 5 mg/kg dose PO, time 0.5, mean",266
same,Plasma Concentration,"Day 1, 5 mg/kg dose PO, time 1, individual animals",523 and 590
same,Plasma Concentration,"Day 1, 5 mg/kg dose PO, time 1, mean",557
same,Plasma Concentration,"Day 1, 5 mg/kg dose PO, time 2, individual animals",587 and 671
same,Plasma Concentration,"Day 1, 5 mg/kg dose PO, time 2, mean",629
same,Plasma Concentration,"Day 1, 5 mg/kg dose PO, time 4, individual animals",765 and 686
same,Plasma Concentration,"Day 1, 5 mg/kg dose PO, time 4, mean",726
same,Plasma Concentration,"Day 1, 5 mg/kg dose PO, time 8, individual animals",785 and 424
same,Plasma Concentration,"Day 1, 5 mg/kg dose PO, time 8, mean",605
same,Plasma Concentration,"Day 1, 5 mg/kg dose PO, time 24, individual animals",166 and 58.7
same,Plasma Concentration,"Day 1, 5 mg/kg dose PO, time 24, mean",112
same,AUC0-last,[1],7398 ng·h/mL
same,AUCExtra,[1],6.05%
same,AUMCExtra,[1],20.9%
same,Cl_F,[1],10.6 mL/min/kg
same,Cmax,[1],686 ng/mL
same,MRT0-last,[1],7.83 h
same,Tlast,[1],24.0 h
same,Vz_F,[1],5.16 L/kg
same,AUC0-last,"Day 1, 5 mg/kg dose PO, mean",9495 ng·h/mL
same,Tlast,"Day 1, 5 mg/kg dose PO, mean",24.0 h
same,Plasma Concentration,"Day 1, 10 mg/kg dose PO, time 0, individual animals",BQL
same,Plasma Concentration,"Day 1, 10 mg/kg dose PO, time 0.25, individual animals",310 and 258
same,Plasma Concentration,"Day 1, 10 mg/kg dose PO, time 0.25, mean",284
same,Plasma Concentration,"Day 1, 10 mg/kg dose PO, time 0.5, individual animals",948 and 954
same,Plasma Concentration,"Day 1, 10 mg/kg dose PO, time 0.5, mean",951
same,Plasma Concentration,"Day 1, 10 mg/kg dose PO, time 1, individual animals",1330 and 1260
same,Plasma Concentration,"Day 1, 10 mg/kg dose PO, time 1, mean",1295
same,Plasma Concentration,"Day 1, 10 mg/kg dose PO, time 2, individual animals",1820 and 1450
same,Plasma Concentration,"Day 1, 10 mg/kg dose PO, time 2, mean",1635
same,Plasma Concentration,"Day 1, 10 mg/kg dose PO, time 4, individual animals",2010 and 1380
same,Plasma Concentration,"Day 1, 10 mg/kg dose PO, time 4, mean",1695
same,Plasma Concentration,"Day 1, 10 mg/kg dose PO, time 8, individual animals",1080 and 860
same,Plasma Concentration,"Day 1, 10 mg/kg dose PO, time 8, mean",970
same,Plasma Concentration,"Day 1, 10 mg/kg dose PO, time 24, individual animals",138 and 134
same,Plasma Concentration,"Day 1, 10 mg/kg dose PO, time 24, mean",136
same,AUC0-last,[2],15568 ng·h/mL
same,AUC(0-inf),[2],16719 ng·h/mL
same,AUCExtra,[2],5.08% and 6.88%
same,AUMCExtra,[2],18.2% and 23.5%
same,Cl_F,[2],8.12 mL/min/kg and 9.97 mL/min/kg
same,Cmax,[2],1450 ng/mL
same,MRT0-inf,[2],9.54 h
same,MRT0-last,[2],7.84 h
same,Tlast,[2],24.0 h
same,T½,[2],5.95 h
same,Vz_F,[2],3.68 L/kg and 5.14 L/kg
same,AUC0-last,"Day 1, 10 mg/kg dose PO, mean",17527 ng·h/mL
same,AUCExtra,"Day 1, 10 mg/kg dose PO, mean",5.98%
same,AUMCExtra,"Day 1, 10 mg/kg dose PO, mean",20.9%
same,Cl_F,"Day 1, 10 mg/kg dose PO, mean",9.04 mL/min/kg
same,Tlast,"Day 1, 10 mg/kg dose PO, mean",24.0 h
same,Vz_F,"Day 1, 10 mg/kg dose PO, mean",4.41 L/kg
same,Plasma Concentration,"Day 1, 20 mg/kg dose PO, time 0, individual animals",BQL
same,Plasma Concentration,"Day 1, 20 mg/kg dose PO, time 0.25, individual animals",413 and 438
same,Plasma Concentration,"Day 1, 20 mg/kg dose PO, time 0.25, mean",426
same,Plasma Concentration,"Day 1, 20 mg/kg dose PO, time 0.5, individual animals",2090 and 1440
same,Plasma Concentration,"Day 1, 20 mg/kg dose PO, time 0.5, mean",1765
same,Plasma Concentration,"Day 1, 20 mg/kg dose PO, time 1, individual animals",3430 and 3440
same,Plasma Concentration,"Day 1, 20 mg/kg dose PO, time 1, mean",3435
same,Plasma Concentration,"Day 1, 20 mg/kg dose PO, time 2, individual animals",3620 and 5590
same,Plasma Concentration,"Day 1, 20 mg/kg dose PO, time 2, mean",4605
same,Plasma Concentration,"Day 1, 20 mg/kg dose PO, time 4, individual animals",4330 and 6000
same,Plasma Concentration,"Day 1, 20 mg/kg dose PO, time 4, mean",5165
same,Plasma Concentration,"Day 1, 20 mg/kg dose PO, time 8, individual animals",3170 and 4570
same,Plasma Concentration,"Day 1, 20 mg/kg dose PO, time 8, mean",3870
same,Plasma Concentration,"Day 1, 20 mg/kg dose PO, time 24, individual animals",394 and 1810
same,Plasma Concentration,"Day 1, 20 mg/kg dose PO, time 24, mean",1102
same,AUC0-last,[3],86304 ng·h/mL
same,AUC(0-inf),[3],52608 ng·h/mL and 116806 ng·h/mL
same,AUCExtra,[3],6.10% and 26.1%
same,AUMCExtra,[3],20.3% and 58.8%
same,Cl_F,[3],6.34 mL/min/kg and 2.85 mL/min/kg
